Reference: patent publication US6375926B1, “Labelled elastase inhibitors” (Amersham International PLC, priority 1996, dated 2002)
Read-outs that look alike come from different tables or passages of the source.

Key:
[1] = tested on: E. coli infected rats (experimental abscess); experiment: In vivo biodistribution in rats bearing experimental abscesses, direct intravenous injection; parameters: species or system male Wistar rats; conditions: 48 hrs
[2] = tested on: E. coli infected rats (experimental abscess); experiment: as above; parameters: species or system male Wistar rats; conditions: for Relative conc. In infected area / Infected/normal / Infected/blood: directly injected i.v.; for Relative conc. In infected area: % injected dose in a % body weight; for Infected/normal: ratio of % id/g infected area to contralateral thigh; for Infected/blood: ratio of %/g infected area to blood
Description: (§1) The model: into the right gracilis (thigh) muscle of male Wistar rats (250-325 g) were injected 1 ml/kg of an E. coli suspension containing >> 5×10^8/ml organisms.
(§2) Validation: the model was validated for use in the development of diagnostic imaging agents of infection/inflammation by the intravenous injection of ^99mTc-HMPAO ex-vivo labelled human wbc or ^67Ga-citrate when the abscesses were 24 hours old. Animals were dissected between 4 and 24 hours after injection. ^99mTc-labelled red blood cells were used as a negative control.
The animals were sacrificed at either 4 or 24 hours post injection and relevant tissues dissected.

[3] = tested on: isolated human white cells (granulocytes; monocytes + lymphocytes); experiment: In vitro cell uptake in isolated human white cells; format: cell-based; conditions: for selectivity for granulocytes over a mixture of monocytes/lymphocytes: approximately equivalent numbers of monocytes/lymphocytes and granulocytes present; for % uptake in Gran. (granulocytes), WHITE CELLS / % uptake in Mon. (monocytes + lymphocytes), WHITE CELLS: isolated human white cells, 30 minutes at 37° C., radiolabelled compound
Description: Fresh blood (30-120 ml) was anticoagulated with 1.5% ACD solution and sedimented by addition of 2 ml Hespan per 10 ml blood for 90 minutes at room temperature. The leucocyte rich platelet rich plasma supernatant was removed and centrifuged at 150 g for 5 minutes, yielding a leucocyte rich pellet and platelet rich plasma (PRP). The PRP was centrifuged at 4000 g to pellet the platelets leaving a cell free plasma (CFP). The leucocyte pellet was resuspended in a 50:50 mixture of HBSS and CFP and incubated with the radioactive compound for 30 minutes at 37° C. Free radioactive material was then removed from the cells by addition of an excess of HBSS:CFP and centrifugation of the leucocytes at 150 g for 7 minutes. The supernatant and cell pellet were taken for radioactive counting for calculation of percentage cell uptake. The distribution of radioactivity within the cell pellet was assessed by separation of the cell types using Percoll density gradient centrifugation (38%, 55% and 73% Percoll in HBSS step gradients). The residual plasma and free activity was recovered from the top of the gradient, the mononuclear cells (lymphocytes and monocytes) from the interface between 38% and 55%, and the granulocytes were recovered from the interface between 55% and 73% Percoll.

[4] = tested on: E. coli infected rats (experimental abscess); experiment: In vivo biodistribution of ex vivo labelled human leucocytes in E. coli infected rats; parameters: species or system male Wistar rats; conditions: ex vivo labelled human leucocytes injected i.v.
Description: as §1, §2
Screening of Ex vivo labelled human leucocytes in E. coli infected rats: A mixed population of human leucocytes was incubated with elastase inhibitor for 30 minutes at 37° C. The cells were then spun down and resuspended in a known volume of rat plasma for intravenous injection into rats bearing a 24 hour old abscess. Animals were dissected at 4 and 24 hours post injection.

[5] = In vivo stability of iodinated HLE inhibitors (thyroid uptake); parameters: species or system male Wistar rats; conditions: i.v. injection
Description: The in vivo stability of radioiodinated HLE inhibitors was monitored by determination of the percentage uptake in the thyroid as a function of time after administration. Thus radioiodinated compounds and ^123I free iodide were injected into male Wistar rats. The percentage of injected dose distributing to the thyroid was calculated by dissection at 4 and 24 hours post injection and counting.

[6] = tested on: human whole blood (granulocytes, monocytes + lymphocytes, erythrocytes); experiment: In vitro cell uptake in human whole blood; format: cell-based; conditions: 37° C. for 1 hour, radiolabelled compound
Description: The radioactive compound was added to 1 ml whole blood anticoagulated with ACD and incubated at 37° C. for 1 hour. The blood was diluted with HBSS and the cellular component separated by centrifugation. Distribution of activity within the cellular pellet was assessed by separation of cell fractions on Ficoll-Hypaque gradients as above.

[7] = target: T1, HLE (human leucocyte elastase) (Homo sapiens, UniProt P08246); experiment: Measurement of HLE inhibition potency (kinact/Ki); format: biochemical
T1 sequence (P08246 30-267): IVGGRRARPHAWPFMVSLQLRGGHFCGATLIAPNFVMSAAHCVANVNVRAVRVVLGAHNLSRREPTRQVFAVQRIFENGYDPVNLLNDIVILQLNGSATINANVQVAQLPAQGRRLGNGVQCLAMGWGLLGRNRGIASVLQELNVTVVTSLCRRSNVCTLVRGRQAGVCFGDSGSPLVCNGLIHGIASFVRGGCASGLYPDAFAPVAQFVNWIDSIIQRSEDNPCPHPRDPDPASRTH
Description: Inhibitor potency against HLE is described by the parameter kinact/Ki as previously reported [Knight et al., Biochem., 8160-8170, (1992)]. Lyophilised enzyme was reconstituted with TrisHCl buffer, 100 mM, 0.5M NaCl at 0.05 units/ml (approximately nanomolar concentration) in a final reaction volume of 1 ml to which was added methoxysucc-ala-ala-pro-val-pNA substrate (1 mM) and the elastase inhibitor dissolved in DMSO. The reaction was monitored by detecting the change of absorbance at 410 nm (hydrolysis of the substrate releasing p-nitroaniline) over a timescale of 25 minutes. Values of kinact/Ki were estimated according to the Knight et al method.

[8] = tested on: mixed human red/white cells (granulocytes, monocytes + lymphocytes, erythrocytes); experiment: In vitro cell uptake in mixed human red/white cells; format: cell-based; conditions: radiolabelled compound
Description: The radioactive compound was also incubated with an isolated leucocyte preparation to which an erythrocyte fraction had been added back. The packed erythrocytes obtained after blood sedimentation were washed twice with HBSS and then resuspended in their original blood volume with HBSS. Leucocytes obtained from 30 ml blood were resuspended in 0.5 ml erythrocyte suspension and 0.5 ml CFP. The cell suspension was then incubated with compound as above. Analysis of the distribution of activity in the cell pellet in the presence of red blood cells was carried out using Ficoll-Hypaque discontinuous density gradients (densities 1.04, 1.077 and 1.119 g/ml Histopaque steps).

SMILES	Relative conc. In infected area ([2]; 24 hrs post injection)	Infected/normal ([2]; 24 hrs post injection)	Infected/blood ([2]; 24 hrs post injection)	selectivity for granulocytes over a mixture of monocytes/lymphocytes [3]	% uptake in Gran. (granulocytes), WHITE CELLS [3] [%]	% uptake in Mon. (monocytes + lymphocytes), WHITE CELLS [3] [%]	Infected/blood ([4]; 4 hrs post injection)	Infected/normal ([4]; 4 hrs post injection)	Infected/blood ([4]; 24 hrs post injection)	Infected/normal ([4]; 24 hrs post injection)	% dose in Thyroid ([5]; 4 hours) [% dose]	% dose in Thyroid ([5]; 24 hours) [% dose]	% uptake in Eryth. (erythrocytes), WHOLE BLOOD [6] [%]	% uptake in Gran. (granulocytes), WHOLE BLOOD [6] [%]	% uptake in Mon. (monocytes + lymphocytes), WHOLE BLOOD [6] [%]	Relative conc. In infected area ([2]; 4 hrs post injection)	Infected/normal ([2]; 4 hrs post injection)	Infected/blood ([2]; 4 hrs post injection)	% uptake in Eryth. (erythrocytes), WHITE AND RED CELLS [8] [%]	% uptake in Gran. (granulocytes), WHITE AND RED CELLS [8] [%]	also measured
O=C([O-])CC(O)(CC(=O)[O-])C(=O)[O-].[67Ga+3] [^67Ga-citrate, ^67Ga citrate, reference compound]	0.9	2.2	3.9	–	–	–	–	–	–	–	–	–	–	–	–	–	–	–	–	–	Infected/blood [1]: 9.7; Infected/normal [1]: 3.9; Relative conc. In infected area [1]: 1.1
CCC[C@@H](NC(=O)N1C(=O)C(CC)(CC)[C@@H]1Oc1ccc(C(=O)N2CCN(C)CC2)cc1)c1ccc(I)cc1 [Compound 24, 4S-[4-[[(4-methyl)piperazin-1-yl]carbonyl]phenoxy]-1-[(R-α-n-propyl)-(4-iodo)benzylaminocarbonyl]-3,3-diethyl-2-azetidinone]	0.16	1.1	0.9	some degree of selectivity for granulocytes	83.2	3.4	0.9	1.3	0.9	1.3	0.2	0.6	16.6	24.3	13.6	0.38	1.3	1.3	41.7	40.4	Relative conc. In infected area ([4]; 4 hrs post injection): 0.53; Relative conc. In infected area ([4]; 24 hrs post injection): 0.20; kinact/Ki (human elastase) ([7]; as listed in Table 24 beside the radiolabelled compounds): 2830000; Potency (1/(M·s)), kinact/Ki ([7]; measured for non-radioactive iodine-labelled compounds and unlabelled chelate conjugates): 2.83e+06 M⁻¹ s⁻¹; % uptake in Mon. (monocytes + lymphocytes), WHITE AND RED CELLS [8]: 4.0%
CCC1(CC)C(=O)N(C(=O)NCc2ccc(I)cc2)C1Oc1ccc(C(=O)N2CCN(C)CC2)cc1 (racemic) [Compound 4, 4-[4-[[(4-Methyl)piperazin-1-yl]carbonyl]phenoxy]-1-[(4-iodo)benzylaminocarbonyl]-3,3-diethyl-2-azetidinone]	0.12	1.3	0.51	some degree of selectivity for granulocytes	25.7	2.0	0.61	1.5	0.75	1.9	0.1	0.9	6.5	5.0	3.9	0.51	1.3	0.62	14.2	14.4	kinact/KI ([7]; as listed in Table 24 beside the radiolabelled compounds, read-out: kinact/Ki (human elastase)): 32000 M⁻¹ s⁻¹; kinact/KI ([7]; measured for non-radioactive iodine-labelled compounds and unlabelled chelate conjugates, read-out: Potency (M/sec), kinact/Ki): 32000 M⁻¹ s⁻¹; uptake in the infected region compared with the ^99mTc-rbc control ([2]; ^123I-labelled, rat model of inflammation/infection): significantly better uptake in the infected region; % uptake in Mon. (monocytes + lymphocytes), WHITE AND RED CELLS [8]: 3.4%
